According to patent publication US9693556B2, “Herbicidal pyridazinone derivatives” (SYNGENTA LIMITED, priority 2011, dated 2017):

Legend:
Type in all cases: in vivo
Setaria faberi (SETFA) [1] = assay: Pre-emergence herbicidal glasshouse test on Setaria faberi; conditions: pre-emergence; 1000 g/h; evaluated after 13 days
How it was run: (§1)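 Steps: sow seeds in standard soil; cultivate 1 d (pre-) or 8 d (post-emergence) at 24/16 °C, 14 h light, 65% humidity; spray 1000 g/h in acetone/water plus Tween 20; grow on, watering twice daily; score percentage damage after 13 d.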

Setaria faberi (SETFA) [2] = assay: Post-emergence herbicidal glasshouse test on Setaria faberi; conditions: post-emergence; 1000 g/h; evaluated after 13 days
How it was run: as §1

Solanum nigrum (SOLNI) [3] = assay: Pre-emergence herbicidal glasshouse test on Solanum nigrum; conditions: pre-emergence; 1000 g/h; evaluated after 13 days
How it was run: as §1

[4] = test system: Amaranthus retoflexus (AMARE); assay: Pre-emergence herbicidal glasshouse test on Amaranthus retoflexus; conditions: pre-emergence; 1000 g/h; evaluated after 13 days
How it was run: as §1

Solanum nigrum (SOLNI) [5] = assay: Post-emergence herbicidal glasshouse test on Solanum nigrum; conditions: post-emergence; 1000 g/h; evaluated after 13 days
How it was run: as §1

[6] = test system: Amaranthus retoflexus (AMARE); assay: Post-emergence herbicidal glasshouse test on Amaranthus retoflexus; conditions: post-emergence; 1000 g/h; evaluated after 13 days
How it was run: as §1

[7] = test system: Alopecurus myosuroides (ALOMY); assay: Post-emergence herbicidal glasshouse test on Alopecurus myosuroides; conditions: post-emergence; 1000 g/h; evaluated after 13 days
How it was run: as §1

[8] = test system: Echinochloa crus-galli (ECHCG); assay: Post-emergence herbicidal glasshouse test on Echinochloa crus-galli; conditions: post-emergence; 1000 g/h; evaluated after 13 days
How it was run: as §1

[9] = test system: Ipomoea hederacea (IPOHE); assay: Post-emergence herbicidal glasshouse test on Ipomoea hederacea; conditions: post-emergence; 1000 g/h; evaluated after 13 days
How it was run: as §1

[10] = test system: Ipomoea hederacea (IPOHE); assay: Pre-emergence herbicidal glasshouse test on Ipomoea hederacea; conditions: pre-emergence; 1000 g/h; evaluated after 13 days
How it was run: as §1

[11] = test system: Echinochloa crus-galli (ECHCG); assay: Pre-emergence herbicidal glasshouse test on Echinochloa crus-galli; conditions: pre-emergence; 1000 g/h; evaluated after 13 days
How it was run: as §1

[12] = test system: Alopecurus myosuroides (ALOMY); assay: Pre-emergence herbicidal glasshouse test on Alopecurus myosuroides; conditions: pre-emergence; 1000 g/h; evaluated after 13 days
How it was run: as §1

| Compound | PRE Application SETFA herbicidal damage (five point scale) (Setaria faberi (SETFA) [1]) | POST Application SETFA herbicidal damage (five point scale) (Setaria faberi (SETFA) [2]) | PRE Application SOLNI herbicidal damage (five point scale) (Solanum nigrum (SOLNI) [3]) | PRE Application AMARE herbicidal damage (five point scale) [4] | POST Application SOLNI herbicidal damage (five point scale) (Solanum nigrum (SOLNI) [5]) | POST Application AMARE herbicidal damage (five point scale) [6] | POST Application ALOMY herbicidal damage (five point scale) [7] | POST Application ECHCG herbicidal damage (five point scale) [8] | POST Application IPOHE herbicidal damage (five point scale) [9] | PRE Application IPOHE herbicidal damage (five point scale) [10] | PRE Application ECHCG herbicidal damage (five point scale) [11] | PRE Application ALOMY herbicidal damage (five point scale) [12] |
| --- | --- | --- | --- | --- | --- | --- | --- | --- | --- | --- | --- | --- |
| Cn1ncc(-c2ccc(F)cc2C(F)(F)F)c(O)c1=O [Compound 1.112] | 1 (1=0-19% damage) | 1 (1=0-19% damage) | 1 (1=0-19% damage) | 1 (1=0-19% damage) | 4 (4=60-79% damage) | 5 (5=80-100% damage) | 1 (1=0-19% damage) | 1 (1=0-19% damage) | 4 (4=60-79% damage) | 1 (1=0-19% damage) | 1 (1=0-19% damage) | 1 (1=0-19% damage) |
| COc1ccc(-c2cnn(C)c(=O)c2O)c(Cl)c1 [Compound 1.103] | 1 (1=0-19% damage) | 1 (1=0-19% damage) | 1 (1=0-19% damage) | 1 (1=0-19% damage) | 2 (2=20-39% damage) | 1 (1=0-19% damage) | 1 (1=0-19% damage) | 1 (1=0-19% damage) | 1 (1=0-19% damage) | 1 (1=0-19% damage) | 1 (1=0-19% damage) | 1 (1=0-19% damage) |
| CC[S+]([O-])c1ccccc1-c1cnn(C)c(=O)c1O (stereo not drawn) [Compound 1.041] | 2 (2=20-39% damage) | 5 (5=80-100% damage) | 2 (2=20-39% damage) | 4 (4=60-79% damage) | 5 (5=80-100% damage) | 5 (5=80-100% damage) | 4 (4=60-79% damage) | 5 (5=80-100% damage) | 5 (5=80-100% damage) | 1 (1=0-19% damage) | 4 (4=60-79% damage) | 3 (3=40-59% damage) |
| Cn1ncc(-c2ccc(C(F)(F)F)cc2[N+](=O)[O-])c(O)c1=O [Compound 1.110] | 1 (1=0-19% damage) | 1 (1=0-19% damage) | 1 (1=0-19% damage) | 5 (5=80-100% damage) | 5 (5=80-100% damage) | 5 (5=80-100% damage) | 1 (1=0-19% damage) | 3 (3=40-59% damage) | 5 (5=80-100% damage) | 1 (1=0-19% damage) | 1 (1=0-19% damage) | 1 (1=0-19% damage) |
| Cn1ncc(-c2ccc(Cl)cc2C(F)(F)F)c(O)c1=O [Compound 1.113] | 1 (1=0-19% damage) | 3 (3=40-59% damage) | 4 (4=60-79% damage) | 5 (5=80-100% damage) | 5 (5=80-100% damage) | 5 (5=80-100% damage) | 2 (2=20-39% damage) | 2 (2=20-39% damage) | 5 (5=80-100% damage) | 2 (2=20-39% damage) | 1 (1=0-19% damage) | 1 (1=0-19% damage) |
